Measured values taken from PubChem BioAssay AID1963852 (Molecular Pharmacology Branch, DTP, NCI, 2024).

Tested on: 282377-053-R-J1-PDC complex spheroid viability
Assay: Anticancer human tumor 282377-053-R-J1-PDC patient-derived colon adenocarcinoma cell line growth inhibition [POLQ]
Settings: for IC50: curve of first compound; for viability, T/C: stronger effect = lower value
In short: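 Patient-derived tumour cells were co-cultured with HUVEC and mesenchymal stem cells as multicellular spheroids at 37 °C. They were treated with POLQ inhibitors (novobiocin, ART-558, RP6685) alone or combined with other agents. Top concentrations were at or near clinical Cmax (otherwise 10 microM; SN-38 at 1 microM), decreasing in half-log steps.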

[1] = second compound 0.0316 µM, first compound 0.0316 µM
[2] = second compound 0.0316 µM, first compound 0.1 µM
[3] = second compound 0.0316 µM, first compound 0.316 µM
[4] = second compound 0.0316 µM, first compound 1 µM
[5] = second compound 0.0316 µM, first compound 3.16 µM
[6] = second compound 0.0316 µM, first compound 10 µM
[7] = second compound 0.1 µM, first compound 0.0316 µM
[8] = second compound 0.1 µM, first compound 0.1 µM
[9] = second compound 0.1 µM, first compound 0.316 µM
[10] = second compound 0.1 µM, first compound 1 µM
[11] = second compound 0.1 µM, first compound 3.16 µM
[12] = second compound 0.1 µM, first compound 10 µM
[13] = second compound 0.316 µM, first compound 0.0316 µM
[14] = second compound 0.316 µM, first compound 0.1 µM
[15] = second compound 0.316 µM, first compound 0.316 µM
[16] = second compound 0.316 µM, first compound 1 µM
[17] = second compound 0.316 µM, first compound 3.16 µM
[18] = second compound 0.316 µM, first compound 10 µM
[19] = second compound 1 µM, first compound 0.0316 µM
[20] = second compound 1 µM, first compound 0.1 µM
[21] = second compound 1 µM, first compound 0.316 µM
[22] = second compound 1 µM, first compound 1 µM
[23] = second compound 1 µM, first compound 3.16 µM
[24] = second compound 1 µM, first compound 10 µM
[25] = second compound 3.16 µM, first compound 0.0316 µM
[26] = second compound 3.16 µM, first compound 0.1 µM
[27] = second compound 3.16 µM, first compound 0.316 µM
[28] = second compound 3.16 µM, first compound 1 µM
[29] = second compound 3.16 µM, first compound 3.16 µM
[30] = second compound 3.16 µM, first compound 10 µM
[31] = second compound 10 µM, first compound 0.0316 µM
[32] = second compound 10 µM, first compound 0.1 µM
[33] = second compound 10 µM, first compound 0.316 µM
[34] = second compound 10 µM, first compound 1 µM
[35] = second compound 10 µM, first compound 3.16 µM
[36] = second compound 10 µM, first compound 10 µM
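Note: spheroids exposed to compounds for seven days.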
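Throughout, for viability, T/C: 100% = DMSO vehicle control viability.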

## CCCS(=O)(=O)Nc1ccc(F)c(C(=O)c2c[nH]c3ncc(-c4ccc(Cl)cc4)cc23)c1F + COC1C(OC(N)=O)C(O)C(Oc2ccc3c(O)c(NC(=O)c4ccc(O)c(CC=C(C)C)c4)c(=O)oc3c2C)OC1(C)C
Second compound 0.0316 µM
  IC50: 3.55 µM
Second compound 0.1 µM
  IC50: 4.03 µM
Second compound 0.316 µM
  IC50: 3.46 µM
Second compound 1 µM
  IC50: 3.45 µM
Second compound 3.16 µM
  IC50: 3.83 µM
Second compound 10 µM
  IC50: 2.37 µM
[1]
  viability, T/C: 91.9%
[2]
  viability, T/C: 77.1%
[3]
  viability, T/C: 81.1%
[4]
  viability, T/C: 56.5%
[5]
  viability, T/C: 59.4%
[6]
  viability, T/C: 33.2%
[7]
  viability, T/C: 86.6%
[8]
  viability, T/C: 76.1%
[9]
  viability, T/C: 65.7%
[10]
  viability, T/C: 68.4%
[11]
  viability, T/C: 60%
[12]
  viability, T/C: 29.9%
[13]
  viability, T/C: 89.8%
[14]
  viability, T/C: 65.5%
[15]
  viability, T/C: 63.5%
[16]
  viability, T/C: 65.3%
[17]
  viability, T/C: 58.4%
[18]
  viability, T/C: 32.9%
[19]
  viability, T/C: 108%
[20]
  viability, T/C: 63.7%
[21]
  viability, T/C: 80.9%
[22]
  viability, T/C: 58.5%
[23]
  viability, T/C: 66.5%
[24]
  viability, T/C: 30.6%
[25]
  viability, T/C: 93.1%
[26]
  viability, T/C: 82%
[27]
  viability, T/C: 68.7%
[28]
  viability, T/C: 54.9%
[29]
  viability, T/C: 68.4%
[30]
  viability, T/C: 33.2%
[31]
  viability, T/C: 89.1%
[32]
  viability, T/C: 73.5%
[33]
  viability, T/C: 73.1%
[34]
  viability, T/C: 73.3%
[35]
  viability, T/C: 42.2%
[36]
  viability, T/C: 38%

## CNCc1ccc(-c2[nH]c3cc(F)cc4c3c2CCNC4=O)cc1 + COC1C(OC(N)=O)C(O)C(Oc2ccc3c(O)c(NC(=O)c4ccc(O)c(CC=C(C)C)c4)c(=O)oc3c2C)OC1(C)C
Second compound 0.0316 µM
  IC50: > 10 µM
Second compound 0.1 µM
  IC50: > 10 µM
Second compound 0.316 µM
  IC50: > 10 µM
Second compound 1 µM
  IC50: > 10 µM
Second compound 3.16 µM
  IC50: > 10 µM
Second compound 10 µM
  IC50: > 10 µM
[1]
  viability, T/C: 115%
[2]
  viability, T/C: 118%
[3]
  viability, T/C: 106%
[4]
  viability, T/C: 110%
[5]
  viability, T/C: 130%
[6]
  viability, T/C: 159%
[7]
  viability, T/C: 113%
[8]
  viability, T/C: 106%
[9]
  viability, T/C: 104%
[10]
  viability, T/C: 108%
[11]
  viability, T/C: 122%
[12]
  viability, T/C: 152%
[13]
  viability, T/C: 104%
[14]
  viability, T/C: 98.4%
[15]
  viability, T/C: 96.6%
[16]
  viability, T/C: 100%
[17]
  viability, T/C: 133%
[18]
  viability, T/C: 157%
[19]
  viability, T/C: 102%
[20]
  viability, T/C: 99%
[21]
  viability, T/C: 121%
[22]
  viability, T/C: 103%
[23]
  viability, T/C: 128%
[24]
  viability, T/C: 160%
[25]
  viability, T/C: 98.7%
[26]
  viability, T/C: 111%
[27]
  viability, T/C: 97.6%
[28]
  viability, T/C: 87.4%
[29]
  viability, T/C: 121%
[30]
  viability, T/C: 167%
[31]
  viability, T/C: 107%
[32]
  viability, T/C: 122%
[33]
  viability, T/C: 110%
[34]
  viability, T/C: 106%
[35]
  viability, T/C: 127%
[36]
  viability, T/C: 162%

## COc1ccc([C@@H](O)c2cc(-c3ncnc4cc(N5CCOCC5)ccc34)c(F)cc2Cl)nn1 + COC1C(OC(N)=O)C(O)C(Oc2ccc3c(O)c(NC(=O)c4ccc(O)c(CC=C(C)C)c4)c(=O)oc3c2C)OC1(C)C
Second compound 0.0316 µM
  IC50: > 10 µM
Second compound 0.1 µM
  IC50: > 10 µM
Second compound 0.316 µM
  IC50: > 10 µM
Second compound 1 µM
  IC50: > 10 µM
Second compound 3.16 µM
  IC50: > 10 µM
Second compound 10 µM
  IC50: > 10 µM
[1]
  viability, T/C: 109%
[2]
  viability, T/C: 105%
[3]
  viability, T/C: 104%
[4]
  viability, T/C: 85.4%
[5]
  viability, T/C: 85.4%
[6]
  viability, T/C: 78.5%
[7]
  viability, T/C: 108%
[8]
  viability, T/C: 106%
[9]
  viability, T/C: 95.1%
[10]
  viability, T/C: 73.7%
[11]
  viability, T/C: 70.1%
[12]
  viability, T/C: 62.3%
[13]
  viability, T/C: 96.5%
[14]
  viability, T/C: 89.3%
[15]
  viability, T/C: 78.2%
[16]
  viability, T/C: 88.1%
[17]
  viability, T/C: 77.5%
[18]
  viability, T/C: 69.2%
[19]
  viability, T/C: 93.2%
[20]
  viability, T/C: 90.9%
[21]
  viability, T/C: 101%
[22]
  viability, T/C: 87.2%
[23]
  viability, T/C: 95%
[24]
  viability, T/C: 66.2%
[25]
  viability, T/C: 94%
[26]
  viability, T/C: 91.8%
[27]
  viability, T/C: 90.7%
[28]
  viability, T/C: 89.4%
[29]
  viability, T/C: 79.3%
[30]
  viability, T/C: 57.6%
[31]
  viability, T/C: 102%
[32]
  viability, T/C: 91.6%
[33]
  viability, T/C: 91.7%
[34]
  viability, T/C: 92.2%
[35]
  viability, T/C: 60.1%
[36]
  viability, T/C: 75.7%

## COc1cccc(OCCCN)c1-c1cc(Nc2cnc(C#N)cn2)n[nH]1 + COC1C(OC(N)=O)C(O)C(Oc2ccc3c(O)c(NC(=O)c4ccc(O)c(CC=C(C)C)c4)c(=O)oc3c2C)OC1(C)C
Second compound 0.0316 µM
  IC50: 0.124 µM
Second compound 0.1 µM
  IC50: 0.0562 µM
Second compound 0.316 µM
  IC50: 0.0926 µM
Second compound 1 µM
  IC50: 0.111 µM
Second compound 3.16 µM
  IC50: 0.148 µM
Second compound 10 µM
  IC50: 0.0936 µM
Second compound 0.0316 µM, first compound 0.00316 µM
  viability, T/C: 117%
Second compound 0.0316 µM, first compound 0.01 µM
  viability, T/C: 106%
[1]
  viability, T/C: 92.7%
[2]
  viability, T/C: 51.4%
[3]
  viability, T/C: 37.4%
[4]
  viability, T/C: 29.5%
Second compound 0.1 µM, first compound 0.00316 µM
  viability, T/C: 106%
Second compound 0.1 µM, first compound 0.01 µM
  viability, T/C: 114%
[7]
  viability, T/C: 63.9%
[8]
  viability, T/C: 46.2%
[9]
  viability, T/C: 34.9%
[10]
  viability, T/C: 25.6%
Second compound 0.316 µM, first compound 0.00316 µM
  viability, T/C: 118%
Second compound 0.316 µM, first compound 0.01 µM
  viability, T/C: 83.9%
[13]
  viability, T/C: 75.2%
[14]
  viability, T/C: 46.4%
[15]
  viability, T/C: 31.5%
[16]
  viability, T/C: 30.9%
Second compound 1 µM, first compound 0.00316 µM
  viability, T/C: 111%
Second compound 1 µM, first compound 0.01 µM
  viability, T/C: 76%
[19]
  viability, T/C: 67.9%
[20]
  viability, T/C: 60.6%
[21]
  viability, T/C: 31%
[22]
  viability, T/C: 33.2%
Second compound 3.16 µM, first compound 0.00316 µM
  viability, T/C: 87.9%
Second compound 3.16 µM, first compound 0.01 µM
  viability, T/C: 84.3%
[25]
  viability, T/C: 74.3%
[26]
  viability, T/C: 49.3%
[27]
  viability, T/C: 46.9%
[28]
  viability, T/C: 30.5%
Second compound 10 µM, first compound 0.00316 µM
  viability, T/C: 99.8%
Second compound 10 µM, first compound 0.01 µM
  viability, T/C: 81.4%
[31]
  viability, T/C: 70.1%
[32]
  viability, T/C: 47.4%
[33]
  viability, T/C: 34.6%
[34]
  viability, T/C: 26.5%
